Laboratory results taken from publication PMC4931022, “Arginine demethylation is catalysed by a subset of JmjC histone lysine demethylases” (Nature Communications, 2016).

Assays:
Format in all cases: biochemical
KDM6B [1] = target: T1, KDM6B (Homo sapiens, UniProt O15054); test: MALDI MS activity assay, recombinant KDM6B catalytic domain; details: KDM6B 2 μM, peptide 10 μM, 1 h, 37 °C, 2OG 100 μM, ascorbate 100 μM, Fe(II) 10 μM, 50 mM HEPES pH 7.5, 150 mM NaCl; MALDI-TOF MS, −14 Da shift
T1 construct: His6 (N); made in house; host or cells: Escherichia coli
T1 sequence (O15054 1141-1590 limits assumed): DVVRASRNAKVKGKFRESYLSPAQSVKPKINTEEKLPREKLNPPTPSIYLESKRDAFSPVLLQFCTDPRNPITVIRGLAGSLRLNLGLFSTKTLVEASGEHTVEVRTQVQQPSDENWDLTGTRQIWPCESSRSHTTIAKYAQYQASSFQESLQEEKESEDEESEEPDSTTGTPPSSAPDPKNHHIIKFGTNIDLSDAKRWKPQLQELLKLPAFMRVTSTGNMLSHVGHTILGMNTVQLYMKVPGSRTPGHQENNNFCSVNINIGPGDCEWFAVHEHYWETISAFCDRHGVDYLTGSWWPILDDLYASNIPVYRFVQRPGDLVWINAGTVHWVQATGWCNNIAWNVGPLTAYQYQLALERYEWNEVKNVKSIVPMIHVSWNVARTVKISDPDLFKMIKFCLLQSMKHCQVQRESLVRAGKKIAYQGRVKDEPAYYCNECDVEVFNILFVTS
Description: (§1) MALDI MS activity assays. Recombinant proteins (2 μM) were incubated with peptides (10 μM, sequences are given in Supplementary Table 1) and cofactors/substrates for 1 h at 37 °C, unless otherwise specified. Reactions were quenched with 1:1 (v/v) methanol and analysed with MALDI MS. Assay conditions for each enzyme are given in Supplementary Table 2. Negative controls without enzyme were included.
(§2) Supplementary Table 2 Assay conditions with truncated recombinant protein.
(§3) Supplementary Table 3 Assay conditions with full length Flag-tagged KDMs.

KDM4E [2] = target: T2, KDM4E (Homo sapiens, UniProt B2RXH2); test: MALDI MS activity assay, recombinant KDM4E catalytic domain; details: peptide 10 μM, 1 h, 37 °C, MALDI-TOF MS; for observed arginine demethylation activity: KDM4E 2 μM, 2OG 200 μM, ascorbate 100 μM, Fe(II) 10 μM, 50 mM HEPES pH 7.5, −14 Da shift
T2 construct: His6 (N); made in house; host or cells: Escherichia coli
T2 sequence (B2RXH2 1-337): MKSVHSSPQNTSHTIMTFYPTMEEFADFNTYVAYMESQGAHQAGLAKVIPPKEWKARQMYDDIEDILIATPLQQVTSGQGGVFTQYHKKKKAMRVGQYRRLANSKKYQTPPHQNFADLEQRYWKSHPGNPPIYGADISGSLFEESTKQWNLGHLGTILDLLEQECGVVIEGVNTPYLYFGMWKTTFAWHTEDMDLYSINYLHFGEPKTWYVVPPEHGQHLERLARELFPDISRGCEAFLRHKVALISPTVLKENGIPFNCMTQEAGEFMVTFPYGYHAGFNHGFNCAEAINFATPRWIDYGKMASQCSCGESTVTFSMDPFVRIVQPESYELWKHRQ
Description: as §1
(§4) Supplementary Table 2 Assay conditions with truncated recombinant protein. […]

KDM4E [3] = target: T2, KDM4E; test: Formaldehyde dehydrogenase-coupled demethylation assay, KDM4E; details: for kcat / Km: KDM4E catalytic domain, apparent, preliminary, 37 °C, mean±s.e.m., n=3; for kcat: FDH/NAD+-coupled assay; for Km: FDH/NAD+-coupled formaldehyde assay, 2OG 200 μM, Fe(II) 10 μM, ascorbate 100 μM; for kcat/KM: KDM4E
Description: (§5) Formaldehyde dehydrogenase-coupled assays. Preliminary kinetic parameters were determined by detection of the formaldehyde by-product of the demethylation reaction using a FDH (formaldehyde dehydrogenase-coupled)/NAD^+-coupled assay as previously described. Assays were carried out in buffer (enzyme-dependent) with the addition of Fe(II) ammonium sulfate (10 μM), sodium ascorbate (100 μM), 2OG (200 μM), NAD^+ (500 μM), enzyme (0.2–4 μM) and FDH enzyme (0.025 U per assay, Sigma-Aldrich; total volume 30 μl) and were conducted at 37 °C in clear-bottom black 384-well plates. […] The Km and Vmax values were calculated from the reaction rate during the linear phase of formaldehyde production, as determined by the slope of the fluorescence signal recorded.

KDM5C [4] = target: T3, KDM5C (Homo sapiens, UniProt P41229); test: MALDI MS activity assay, recombinant KDM5C catalytic domain; details: peptide 10 μM, 1 h, 37 °C, MALDI-TOF MS; for observed arginine demethylation activity: KDM5C 2 μM, 2OG 100 μM, ascorbate 100 μM, Fe(II) 10 μM, 50 mM HEPES pH 7.5, −14 Da shift
T3 construct: KDM5C1–765 was produced as an N-terminally His6-tagged protein in Sf9 cells; His6 (N); made in house; host or cells: Sf9 cells (provided by the Structural Genomics Consortium)
T3 sequence (P41229 1-765): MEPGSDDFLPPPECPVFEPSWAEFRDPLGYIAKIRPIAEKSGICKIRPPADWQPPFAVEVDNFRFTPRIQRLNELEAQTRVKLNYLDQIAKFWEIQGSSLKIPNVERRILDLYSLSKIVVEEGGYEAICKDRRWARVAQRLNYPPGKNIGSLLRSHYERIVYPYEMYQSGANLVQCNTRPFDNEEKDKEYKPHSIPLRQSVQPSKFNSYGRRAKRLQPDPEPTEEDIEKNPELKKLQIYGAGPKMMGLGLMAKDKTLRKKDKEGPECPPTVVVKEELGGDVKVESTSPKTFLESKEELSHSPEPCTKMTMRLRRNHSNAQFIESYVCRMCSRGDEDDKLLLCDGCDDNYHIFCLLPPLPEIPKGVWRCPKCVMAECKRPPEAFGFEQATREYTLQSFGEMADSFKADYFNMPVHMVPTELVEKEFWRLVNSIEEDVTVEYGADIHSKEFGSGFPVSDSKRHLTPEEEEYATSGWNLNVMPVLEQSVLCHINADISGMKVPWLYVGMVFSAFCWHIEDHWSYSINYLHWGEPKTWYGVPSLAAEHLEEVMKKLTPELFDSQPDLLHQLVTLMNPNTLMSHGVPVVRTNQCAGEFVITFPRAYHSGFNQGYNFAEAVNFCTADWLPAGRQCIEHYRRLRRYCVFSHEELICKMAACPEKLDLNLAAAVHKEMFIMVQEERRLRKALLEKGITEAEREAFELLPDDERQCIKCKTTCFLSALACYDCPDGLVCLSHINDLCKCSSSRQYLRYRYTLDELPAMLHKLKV
Description: as §1, §4

KDM3A = target: T4, KDM3A (Homo sapiens, UniProt Q9Y4C1); test: MALDI MS activity assay, recombinant KDM3A catalytic domain; details: KDM3A 2 μM, peptide 10 μM, 1 h, 37 °C, 2OG 100 μM, ascorbate 100 μM, Fe(II) 50 μM, 50 mM HEPES pH 7.5; MALDI-TOF MS, −14 Da shift
T4 construct: KDM3A515–1,317; His6 (N); made in house; host or cells: Sf9 cells
T4 sequence (Q9Y4C1 515-1317 limits assumed): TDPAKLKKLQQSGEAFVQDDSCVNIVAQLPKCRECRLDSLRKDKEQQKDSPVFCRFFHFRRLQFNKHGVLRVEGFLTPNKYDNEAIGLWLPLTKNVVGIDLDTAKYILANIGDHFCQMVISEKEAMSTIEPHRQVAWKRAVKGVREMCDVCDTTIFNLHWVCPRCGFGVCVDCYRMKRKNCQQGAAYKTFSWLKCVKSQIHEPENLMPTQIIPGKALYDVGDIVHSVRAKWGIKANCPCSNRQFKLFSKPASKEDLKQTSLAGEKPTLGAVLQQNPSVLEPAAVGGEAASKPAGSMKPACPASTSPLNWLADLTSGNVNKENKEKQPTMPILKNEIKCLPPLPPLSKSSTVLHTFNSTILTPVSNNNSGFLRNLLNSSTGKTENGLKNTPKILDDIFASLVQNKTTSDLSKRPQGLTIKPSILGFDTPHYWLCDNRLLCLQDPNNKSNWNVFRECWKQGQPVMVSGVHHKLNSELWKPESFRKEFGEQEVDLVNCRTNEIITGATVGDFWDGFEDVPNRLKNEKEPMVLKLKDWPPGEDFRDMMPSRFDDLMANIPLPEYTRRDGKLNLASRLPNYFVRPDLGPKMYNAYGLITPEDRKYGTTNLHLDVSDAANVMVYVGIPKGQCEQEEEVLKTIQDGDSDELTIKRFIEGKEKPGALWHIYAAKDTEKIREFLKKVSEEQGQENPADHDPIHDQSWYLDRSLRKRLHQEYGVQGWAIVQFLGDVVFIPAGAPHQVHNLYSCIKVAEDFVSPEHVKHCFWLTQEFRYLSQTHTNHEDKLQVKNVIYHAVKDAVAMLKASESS
Description: as §1, §2, §3

KDM6B [5] = target: T1, KDM6B; test: Formaldehyde dehydrogenase-coupled demethylation assay, KDM6B
Description: as §5

KDM5C [6] = target: T3, KDM5C; test: Formaldehyde dehydrogenase-coupled demethylation assay, KDM5C
Description: as §5

[7] = calculated from the average kcat and KM values, μM^−1 s^−1 for this quantity

Substance | observed arginine demethylation activity (KDM6B [1]) | observed arginine demethylation activity (KDM4E [2]) | observed arginine demethylation activity (KDM5C [4]) | observed arginine demethylation activity (KDM3A) | also measured
SG-Rme2a-GKGGKGLGKGGA [H4(1-15)R3me2a, 'natural' histone H4 residues 1-15 peptide asymmetrically dimethylated at R3] | − | + | + | − | kcat (KDM4E [3]): 2.1±0.1 × 10^−3 s^−1; Km (KDM4E [3]): 122 ± 10.1 µM; kcat/KM (KDM4E [3]; [7]): 17.7 × 10^−6
H3(14-34)K27me3: 21-residue recognized histone H3 N-methylated-lysine peptide substrate for KDM6B |  |  |  |  | kcat (KDM6B [5]; KDM6B catalytic domain, apparent, preliminary, FDH/NAD+-coupled assay, 37 °C, mean±s.e.m., n=3): 11.7±0.1 × 10^−3 s^−1; Km (KDM6B [5]; KDM6B catalytic domain, apparent, preliminary, FDH/NAD+-coupled formaldehyde assay, 37 °C, 2OG 200 μM, Fe(II) 10 μM, ascorbate 100 μM, mean±s.e.m., n=3): 6.7 ± 0.6 µM; kcat/KM (KDM6B [5]; KDM6B, calculated from the average kcat and KM values): 1,750.0 × 10^−6
A-Rme2a-TKQTARKSTGGKA [H3(1-15)R2me2a, 'natural' histone H3 peptide asymmetrically dimethylated at R2] | − | + | + | − | kcat/KM, times lower than that for H3K4me3 (KDM5C [6]; KDM5C): 14 times; kcat (KDM5C [6]; KDM5C catalytic domain, apparent, preliminary, FDH/NAD+-coupled assay, 37 °C, mean±s.e.m., n=3): 12.0±0.7 × 10^−3 s^−1; Km (KDM5C [6]; KDM5C catalytic domain, apparent, preliminary, FDH/NAD+-coupled formaldehyde assay, 37 °C, 2OG 200 μM, Fe(II) 10 μM, ascorbate 100 μM, mean±s.e.m., n=3): 19 ± 1.9 µM; kcat/KM (KDM5C [6]; KDM5C, calculated from the average kcat and KM values, μM^−1 s^−1 for this quantity): 630.0 × 10^−6; demethylation, in words (KDM4E [2]; KDM4E catalytic domain 2 μM): relatively good RDM substrate; kcat/KM (KDM4E [3]): 0.000114 µM⁻¹ s⁻¹; kcat (KDM4E [3]): 9.9±1.0 × 10^−3 s^−1; Km (KDM4E [3]): 86.9 ± 16.5 µM; kcat/KM (KDM4E [3]; [7]): 114.0 × 10^−6; demethylation, in words (KDM5C [4]; KDM5C catalytic domain 2 μM): relatively good RDM substrate
KQLATKAA-Rme-KSAPAT [H3 (18–32) R26me, 'natural' histone H3 peptide monomethylated at R26] | − | + | − | − | 
SG-Rme2s-GKGGKGLGKGGA [H4 (1–15) R3me2s, 'natural' histone H4 residues 1-15 peptide symmetrically dimethylated at R3] | − | + | − | − | 
A-Rme-TKQTARKSTGGKA [H3 (1–15) R2me, 'natural' histone H3 peptide monomethylated at R2] | − | + | + | − | 
STGGKAP-Rme2a-KQLATKA [H3 (10–24) R17me2a, 'natural' histone H3 peptide asymmetrically dimethylated at R17] | − | − | − | − | 
KQLATKAA-Rme2a-KSAPAT [H3 (18–32) R26me2a, 'natural' histone H3 peptide asymmetrically dimethylated at R26] | − | + | − | − | 
SG-Rme-GKGGKGLGKGGAK [H4 (1–15) R3me, 'natural' histone H4 peptide monomethylated at R3] | − | − | − | − | 
